# Measurements from patent publication US20130190289A1, “COMPOUNDS AND METHODS FOR THE TREATMENT OR PREVENTION OF FLAVIVIRUS INFECTIONS” (priority 2010, published 2013).
# pIC50: −log10 of the molar value. Like-named read-outs stand apart in the source and are kept apart here.
# Legend:
# [1] = [3H]Thymidine incorporation assay (cell toxicity); conditions: human
# [2] = tested on: HCV replicon (genotype 1b) in Huh7 cell line ET; experiment: microbe, parasite or virus in culture; type: cell-based, HCV genotype 1b; conditions: Hepatitis C virus
# [3] = Huh-7, read-out: HCV-Replicon-(Luci-ET) 1b_IC50
# [4] = Huh-7, 96 h, read-out: HCV-Replicon (Luci-ET)-1b_IC50
SMILES,CC50 at 72 h [1],"pIC50 [2, 3]","pIC50 [2, 4]"
"CCC[C@@H](C(=O)N(C)C)N(c1cc(C#CC(C)(C)C)sc1C(=O)O)C(=O)[C@H]1CC[C@H](C)CC1 [Compound 68, 5-(3,3-Dimethylbut-1-ynyl)-3-[[(1S)-1-(dimethylcarbamoyl)butyl]-(trans-4-methylcyclohexanecarbonyl)amino]thiophene-2-carboxylic acid]",10 to 100 µM,> 7.00,–
"O=C(O)c1sc(-c2ccc(Oc3ccccc3)cc2)cc1N(CC(=O)N1CCOCC1)C(=O)c1ccc(Cl)cc1Cl [Compound 152, 3-[(2,4-dichlorobenzoyl)-(2-morpholino-2-oxo-ethyl)amino]-5-(4-phenoxyphenyl)thiophene-2-carboxylic acid]",10 to 100 µM,–,5.00 to 6.00
"C[C@@H](C(=O)N(C)C1CCOCC1)N(c1cc(C#CC(C)(C)C)sc1C(=O)O)C(=O)[C@H]1CC[C@H](C)CC1 [Compound 51, 5-(3,3-Dimethylbut-1-ynyl)-3-[(trans-4-methylcyclohexanecarbonyl)-[(1S)-1-methyl-2-[methyl(tetrahydropyran-4-yl)amino]-2-oxo-ethyl]amino]thiophene-2-carboxylic acid]",> 100 µM,> 7.00,–
"C[C@@H](CC(=O)N1CCOCC1)N(c1cc(C#CC(C)(C)C)sc1C(=O)O)C(=O)[C@H]1CC[C@H](C)CC1 [Compound 105, 5-(3,3-Dimethylbut-1-ynyl)-3-[(trans-4-methylcyclohexanecarbonyl)-[(1S)-1-methyl-3-morpholino-3-oxo-propyl]amino]thiophene-2-carboxylic acid]",> 100 µM,> 7.00,–
"C[C@@H](CC(=O)N1CCN(C)CC1)N(c1cc(C#CC(C)(C)C)sc1C(=O)O)C(=O)[C@H]1CC[C@H](C)CC1 [Compound 110, 5-(3,3-Dimethylbut-1-ynyl)-3-[(trans-4-methylcyclohexanecarbonyl)-[(1S)-1-methyl-3-(4-methylpiperazin-1-yl)-3-oxo-propyl]amino]thiophene-2-carboxylic acid]",> 100 µM,> 7.00,–
"C[C@@H](CC(=O)N(C)C1CCN(C)CC1)N(c1cc(C#CC(C)(C)C)sc1C(=O)O)C(=O)[C@H]1CC[C@H](C)CC1 [Compound 113, 5-(3,3-Dimethylbut-1-ynyl)-3-[(trans-4-methylcyclohexanecarbonyl)-[(1S)-1-methyl-3-[methyl-(1-methyl-4-piperidyl)amino]-3-oxo-propyl]amino]thiophene-2-carboxylic acid]",> 100 µM,> 7.00,–
"CC(C)[C@@H](C(=O)N(C)C)N(c1cc(C#CC(C)(C)C)sc1C(=O)O)C(=O)[C@H]1CC[C@H](C)CC1 [Compound 86, 5-(3,3-Dimethylbut-1-ynyl)-3-[[(1S)-1-(dimethylcarbamoyl)-2-methyl-propyl]-(trans-4-methylcyclohexanecarbonyl)amino]thiophene-2-carboxylic acid]",10 to 100 µM,> 7.00,–
"C[C@H](C(=O)N(C)C)N(c1cc(C#CC(C)(C)C)sc1C(=O)O)C(=O)[C@H]1CC[C@H](C)CC1 [Compound 2, 5-(3,3-Dimethyl-but-1-ynyl)-3-[((R)-1-dimethylcarbamoyl-ethyl)-(trans-4-methyl-cyclohexanecarbonyl)-amino]-thiophene-2-carboxylic acid]",10 to 100 µM,> 7.00,–
"C[C@@H](C(=O)N1CCCC(O)C1)N(c1cc(C#CC(C)(C)C)sc1C(=O)O)C(=O)[C@H]1CC[C@H](C)CC1 (stereo partly drawn) [Compound 54, 5-(3,3-Dimethylbut-1-ynyl)-3-[[(1S)-2-(3-hydroxy-1-piperidyl)-1-methyl-2-oxo-ethyl]-(trans-4-methylcyclohexanecarbonyl)amino]thiophene-2-carboxylic acid]",> 100 µM,> 7.00,–
"C[C@@H](O)[C@@H](C(=O)N1CCOCC1)N(c1cc(C#CC(C)(C)C)sc1C(=O)O)C(=O)[C@H]1CC[C@H](C)CC1 [Compound 60, 5-(3,3-Dimethylbut-1-ynyl)-3-[[(1S,2R)-2-hydroxy-1-(morpholine-4-carbonyl)propyl]-(trans-4-methylcyclohexanecarbonyl)amino]thiophene-2-carboxylic acid]",> 100 µM,> 7.00,–
"CC(C)[C@@H](C(=O)N1CCOCC1)N(c1cc(C#CC(C)(C)C)sc1C(=O)O)C(=O)[C@H]1CC[C@H](C)CC1 [Compound 85, 5-(3,3-Dimethylbut-1-ynyl)-3-[(trans-4-methylcyclohexanecarbonyl)-[(1S)-2-methyl-1-(morpholine-4-carbonyl)propyl]amino]thiophene-2-carboxylic acid]",10 to 100 µM,> 7.00,–
"C[C@@H](C(=O)N1CC[C@H](O)C1)N(c1cc(C#CC(C)(C)C)sc1C(=O)O)C(=O)[C@H]1CC[C@H](C)CC1 [Compound 29, 5-(3,3-Dimethylbut-1-ynyl)-3-[[(1S)-2-[(3S)-3-hydroxypyrrolidin-1-yl]-1-methyl-2-oxo-ethyl]-(trans-4-methylcyclohexanecarbonyl)amino]thiophene-2-carboxylic acid]",> 100 µM,> 7.00,–
"COCCN(C)C(=O)C[C@H](C)N(c1cc(C#CC(C)(C)C)sc1C(=O)O)C(=O)[C@H]1CC[C@H](C)CC1 [Compound 114, 5-(3,3-Dimethylbut-1-ynyl)-3-[[(1S)-3-[2-methoxyethyl(methyl)amino]-1-methyl-3-oxo-propyl]-(trans-4-methylcyclohexanecarbonyl)amino]thiophene-2-carboxylic acid]",> 100 µM,> 7.00,–
"C[C@@H](C(=O)NC1CCCC1)N(c1cc(C#CC(C)(C)C)sc1C(=O)O)C(=O)[C@H]1CC[C@H](C)CC1 [Compound 18, 3-[[(1S)-2-(Cyclopentylamino)-1-methyl-2-oxo-ethyl]-(trans-4-methylcyclohexanecarbonyl)amino]-5-(3,3-dimethylbut-1-ynyl)thiophene-2-carboxylic acid]",10 to 100 µM,> 7.00,–
"C[C@@H](C(=O)N1CCC(O)CC1)N(c1cc(C#CC(C)(C)C)sc1C(=O)O)C(=O)[C@H]1CC[C@H](C)CC1 [Compound 20, 5-(3,3-Dimethylbut-1-ynyl)-3-[[(1S)-2-(4-hydroxy-1-piperidyl)-1-methyl-2-oxo-ethyl]-(trans-4-methylcyclohexanecarbonyl)amino]thiophene-2-carboxylic acid]",> 100 µM,> 7.00,–
"COC[C@@H](C(=O)N1CCCC1)N(C(=O)C1CCCCC1)c1cc(C#CC(C)(C)C)sc1C(=O)O [Compound 36, 3-[Cyclohexanecarbonyl-[(1S)-1-(methoxymethyl)-2-oxo-2-pyrrolidin-1-yl-ethyl]amino]-5-(3,3-dimethylbut-1-ynyl)thiophene-2-carboxylic acid]",> 100 µM,6.00 to 7.00,–
"CC[C@H](C(=O)N1CCOCC1)N(c1cc(C#CC(C)(C)C)sc1C(=O)O)C(=O)[C@H]1CC[C@H](C)CC1 [Compound 122, 5-(3,3-dimethylbut-1-ynyl)-3-[(trans-4-methylcyclohexanecarbonyl)-[(1R)-1-(morpholine-4-carbonyl)propyl]amino]thiophene-2-carboxylic acid]",> 100 µM,–,> 7.00
"C[C@H](CC(=O)N1CCOCC1)N(c1cc(C#CC(C)(C)C)sc1C(=O)O)C(=O)[C@H]1CC[C@H](C)CC1 [Compound 106, 5-(3,3-Dimethylbut-1-ynyl)-3-[(trans-4-methylcyclohexanecarbonyl)-[(1R)-1-methyl-3-morpholino-3-oxo-propyl]amino]thiophene-2-carboxylic acid]",> 100 µM,> 7.00,–
